The text below walks through data of patent US20050019315A1, “Odor control compositions and methods” (Novozymes North America, Inc., priority 2003, published 2005).

This assay can be described thus: Odor panel rating of glucose/gluconic acid solutions inoculated with odorous filtrate. To be noted: capped beakers, 40° C., 7 days. The method, then: Another 250 mL of (4) 10 mM glucose was put it in beaker 4. 20 mg protein/L of carbohydrate oxidase (Microdochium nivale carbohydrate oxidase, Novozymes A/S) was added to beaker 4 and it was kept at a 40° C. for 1 hr. 0.5 mL of odorous 3-day filtrate from the aerobic control in Example 2 was added to all of the beakers. The beaker were capped and placed in a 40° C. water bath for 7 days. At the end of the incubation, a panel smelled the samples as described in Example 1.

Each structure is given as a SMILES string.

On to `O=C(O)[C@H](O)[C@@H](O)[C@H](O)[C@H](O)CO` [Gluconic Acid, gluconic acid], for which the “formation of odor (in words)” value is listed as “will not lead to odorous smell”. The “Odor Level” value (0.5 mL odorous filtrate added, rating 1 to 5, 5 worst) is listed as 1.
